Target: T1, HCV NS5B RNA-dependent RNA polymerase (Hepatitis C virus genotype 1b, UniProt P26663)
T1 construct: RNA-dependent RNA polymerase (NS5B) of the hepatitis C virus (HCV)
Experiment: Assay for inhibition of HCV NS5B polymerase (heteromeric RNA template, 3H-UTP incorporation)
Type: biochemical
Details: activity ranges
Protocol: The effectiveness of the compounds of the present invention as inhibitors of HCV NS5B RNA-dependent RNA polymerase (RdRp) was measured in the following assay.
A. Assay for Inhibition of HCV NS5B Polymerase:
This assay was used to measure the ability of the nucleoside derivatives of the present invention to inhibit the enzymatic activity of the RNA-dependent RNA polymerase (NS5B) of the hepatitis C virus (HCV) on a heteromeric RNA template.
Assay Buffer Conditions: (52.5 μL-total/reaction) • 20 mM Tris, pH 7.5 • 45 mM KCl • 2 mM MgCl2 • 0.01% Triton X-100 • 1 μg BSA, DNase Free • 1 mM DTT • 2 nM DC55-1b.BK or 10 nM DC55-2b.2 • 20 nM heterogeneous template dCoh • UTP 1 uM • ATP 1 uM • CTP 1 uM • GTP 1 uM • 3H-UTP 1,000,000 cpm • 2.5 μl reaction inhibitor compound in H2O
The compounds were tested at various concentrations up to 100 μM final concentration. Nucleoside derivatives were pipetted into wells of a 96-well plate. The enzyme diluted in the reaction buffer was pipetted into the wells and incubated at room temperature for 10 minutes; then the template dCoh was added and incubated for 10 minutes at room temperature. The reaction was initiated by addition of a mixture of nucleotide triphosphates (NTP's), including the radiolabeled UTP, and allowed to proceed at room temperature for 2 hours. Blank samples were done omitting the dCoh template. The reaction was quenched by addition of 50 ul TCA 20% (trichloroacetic acid)/NaPPi 20 mM and the plates were put in ice for 5 minutes. Then, the mixtures were filtered onto Unifilter GF/B 96-well plates (PerkinElmer), washed with TCA 2.5%. P 50 ul/well of scintillator solution (Microscint 20, PerkinElmer) were added and the plates were counted in a scintillator counter.
The percentage of inhibition was calculated according to the following equation: % Inhibition=[1−(cpm in test reaction−cpm in blank)/(cpm in control reaction−cpm in blank)]×100.
Representative compounds were tested in the HCV NS5B polymerase assay and results are reported as IC50 activity ranges in Table B

T1 sequence (P26663 2420-2955): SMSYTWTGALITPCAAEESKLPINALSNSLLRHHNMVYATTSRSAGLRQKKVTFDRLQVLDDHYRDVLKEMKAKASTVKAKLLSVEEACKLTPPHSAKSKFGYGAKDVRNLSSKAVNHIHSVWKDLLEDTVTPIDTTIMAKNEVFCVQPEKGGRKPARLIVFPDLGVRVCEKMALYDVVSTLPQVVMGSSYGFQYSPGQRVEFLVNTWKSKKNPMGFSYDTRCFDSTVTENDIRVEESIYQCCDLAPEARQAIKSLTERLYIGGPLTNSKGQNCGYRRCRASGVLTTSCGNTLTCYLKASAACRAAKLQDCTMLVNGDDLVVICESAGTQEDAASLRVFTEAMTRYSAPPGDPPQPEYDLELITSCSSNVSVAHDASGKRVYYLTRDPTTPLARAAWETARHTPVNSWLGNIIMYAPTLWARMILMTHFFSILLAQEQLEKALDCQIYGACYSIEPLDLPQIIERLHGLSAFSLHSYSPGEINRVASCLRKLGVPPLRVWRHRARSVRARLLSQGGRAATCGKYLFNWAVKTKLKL

Structure (SMILES) | IC50 [µM]
C[C@@]1(O)[C@H](O)[C@@H](COP(=O)(O)OP(=O)(O)OP(=O)(O)O)O[C@H]1n1cc2c3c(ncnc31)NCc1ccccc1-2 [Compound 6, 2-[5-O-(hydroxy{[hydroxy(phosphonooxy)phosphoryl]oxy}phosphoryl)-2-C-methyl-beta-D-ribofuranosyl]-6,7-dihydro-2H-2,3,5,6-tetraazadibenzo[cd,h]azulene] | 1 to 30
C[C@@]1(O)[C@H](O)[C@@H](COP(=O)(O)OP(=O)(O)OP(=O)(O)O)O[C@H]1n1cc2c3c(ncnc31)NC(=O)c1ccccc1-2 [Compound 5, 2-[5-O-(hydroxy{[hydroxy(phosphonooxy)phosphoryl]oxy}phosphoryl)-2-C-methyl-beta-D-ribofuranosyl]-2,6-dihydro-7H-2,3,5,6-tetraazadibenzo[cd,h]azulen-7-one] | < 1
C[C@@]1(O)[C@H](O)[C@@H](COP(=O)(O)OP(=O)(O)OP(=O)(O)O)O[C@H]1n1cc2c3c(ncnc31)NC(=O)c1sccc1-2 [Compound 8, 2-[5-O-(hydroxy{[hydroxy(phosphonooxy)phosphoryl]oxy}phosphoryl)-2-C-methyl-beta-D-ribofuranosyl]-2,6-dihydro-7H-8-thia-2,3,5,6-tetraazabenzo[cd]cyclopenta[h]azulen-7-one] | < 1
C[C@@]1(O)[C@H](O)[C@@H](COP(=O)(O)OP(=O)(O)OP(=O)(O)O)O[C@H]1n1cc2c3c(ncnc31)NCc1sccc1-2 [Compound 7, 2-[5-O-(hydroxy{[hydroxy(phosphonooxy)phosphoryl]oxy}phosphoryl)-2-C-methyl-beta-D-ribofuranosyl]-6,7-dihydro-2H-8-thia-2,3,5,6-tetraazabenzo[cd]cyclopenta[h]azulene] | 1 to 30

Test system: HuH-7 cells containing a subgenomic HCV Replicon
Experiment: Assay for inhibition of HCV RNA replication (subgenomic replicon, in situ RNase protection SPA)
Type: cell-based
Details: Hepatitis C virus; HCV replication assay in HuH-7 replicon cells, activity ranges
Protocol: B. Assay for Inhibition of HCV RNA Replication:
The compounds of the present invention were also evaluated for their ability to affect the replication of Hepatitis C Virus RNA in cultured hepatoma (HuH-7) cells containing a subgenomic HCV Replicon. The details of the assay are described below. This Replicon assay is a modification of that described in V. Lohmann, F. Korner, J-O. Koch, U. Herian, L. Theilmann, and R. Bartenschlager, “Replication of a Sub-genomic Hepatitis C Virus RNAs in a Hepatoma Cell Line,” Science 285:110 (1999).
The assay was an in situ Ribonuclease protection, Scintillation Proximity based-plate assay (SPA). 10,000-40,000 cells were plated in 100-200 μL of media containing 0.8 mg/mL G418 in 96-well cytostar plates (Amersham). Compounds were added to cells at various concentrations up to 100 μM in 1% DMSO at time 0 to 18 h and then cultured for 24-96 h. Cells were fixed (20 min, 10% formalin), permeabilized (20 min, 0.25% Triton X-100/PBS) and hybridized (overnight, 50° C.) with a single-stranded ^33P RNA probe complementary to the (+) strand NS5B (or other genes) contained in the RNA viral genome. Cells were washed, treated with RNAse, washed, heated to 65° C. and counted in a Top-Count Inhibition of replication was read as a decrease in counts per minute (cpm).
Human HuH-7 hepatoma cells, which were selected to contain a subgenomic replicon, carry a cytoplasmic RNA consisting of an HCV 5′ non-translated region (NTR), a neomycin selectable marker, an EMCV IRES (internal ribosome entry site), and HCV non-structural proteins NS3 through NS5B, followed by the 3′ NTR.
Representative compounds were tested in the HCV replication assay and results are reported as EC50 activity ranges in Table C

Structure (SMILES) | EC50 [µM]
CC1(O)C(n2cc3c4c(ncnc42)NC(=O)c2sccc2-3)O[C@H](CO)[C@H]1O (single isomer, unassigned) [Compound 3, 2-(2-C-methyl-beta-D-ribofuranosyl)-2,6-dihydro-7H-8-thia-2,3,5,6-tetraazabenzo[CD]cyclopenta[H]azulen-7-one] | < 30
C[C@@]1(O)[C@H](O)[C@@H](CO)O[C@H]1n1cc2c3c(ncnc31)NC(=O)c1ccccc1-2 [Compound 1, 2-(2-C-methyl-beta-D-ribofuranosyl)-2,6-dihydro-7H-2,3,5,6-tetraazadibenzo[C,D,H]azulen-7-one] | < 30
C[C@@]1(O)[C@H](O)[C@@H](CO)O[C@H]1n1cc2c3c(ncnc31)NCc1ccccc1-2 [Compound 2, 2-(2-C-methyl-beta-D-ribofuranosyl)-6,7-dihydro-2H-2,3,5,6-tetraazadibenzo[cd,h]azulene] | 30 to 50
CC1(O)C(n2cc3c4c(ncnc42)NCc2sccc2-3)O[C@H](CO)[C@H]1O (single isomer, unassigned) [Compound 4, 2-(2-C-methyl-beta-D-ribofuranosyl)-6,7-dihydro-2H-8-thia-2,3,5,6-tetraazabenzo[CD]cyclopenta[H]azulene] | < 30
